These results are taken from patent US10039807B2, “bFGF-polymer conjugates, methods for making the same and applications thereof” (THE REGENTS OF THE UNIVERSITY OF CALIFORNIA, priority 2011, dated 2018).

Series [1] concerns Human Dermal Fibroblast (HDF) cells. The series is described as follows: Stability study of bFGF and bFGF conjugates under treatments, read out as HDF proliferation. Format: cell-based. The conditions noted are these: for percent cell growth after trypsin treatment: 0.1% w/v trypsin for 16 hours at 4° C.; for bioactivity after mildly acidic conditions: pH 4.7 for 16 hours at 4° C.; for percent cell growth after storage: storage at 4° C. for 16 hours. The method, then: (§1) Preparation of untreated and treated samples is detailed in the Methods section. The concentrations of bFGF and bFGF in the conjugates under treatment were 0.05 ng/μL. The concentration of heparin under treatment was 0.075 ng/μl or 0.05 μg/μl, while the concentrations of the unconjugated polymers were 0.075 ng/μl. The final concentrations of bFGF and bFGF conjugates in the medium were 1 ng/ml. Incubation of HDF with each of the samples was carried out for 72 hours. CellTiter® blue assay was performed to quantify percent cell growth. Data was normalized to the blank sample (no bFGF added) in that same treatment group. Each sample was done with six repeats, and the whole experiment was repeated eight times including one blinded study, except (+)bFGF(+)1.5 ng/ml pPEGMA and (+)bFGF-pPEGMA were repeated four times. Error bars are SEM. Statistical analysis was done using two-way ANOVA and Student's T-test. * denotes p<0.05, ** denotes p<0.01 and *** denotes p<0.001 between the sample indicated and the (+) bFGF (−) heparin within that same stress set.
To study the stability of bFGF and bFGF conjugates under various treatments (storage, acidic conditions, protease degradation, and heat), the protein and the conjugates were diluted in medium after these treatments and tested for their bioactivity in promoting HDF proliferation.
The control blank group contained 15 μl of D-PBS. The 15 μl/experimental group was split into 4 vials of 3 μl/vial for four separate treatments. In one set of the 3 μl-vials, 27 μl of D-PBS was added to each vial and the samples were stored at 4° C. for 16 hours. In another set of 3 μl-vials, 27 μl of pH 4.7 PBS was added to each vial and the samples were stored at 4° C. for 16 hours. In the third set of 3 μl-vials, 27 μl of 0.1% Trypsin was added to each vial and the samples were stored at 4° C. for 16 hours. The fourth set of 3 μl-vials were stored at 4° C. for 16 hours before 27 μl of 1% TFA was added and treated for 2 hours at 4° C. The samples under no treatment and under heat treatment were prepared fresh in the same way towards the end of the 16 hour-treatment of other samples. The samples under heat treatment were placed in dry bath at 55° C. for 30 minutes. […] Then, the medium samples were used for cell proliferation assay as described above. After an incubation for 72 hours at 37° C., 5% CO2, CellTiter-Blue® assay was carried out to evaluate cell proliferation. […] Each group was done with six replicates, and the whole experiment was repeated four times, one of which was a blinded study. A two-way ANOVA and student's T-test were done for statistical analysis.
The chosen treatments represent environmental stresses that the growth factor (or any heparin-binding protein) could be exposed to. For example, storage in the unfrozen form and exposure to heat during delivery, transport, or use were represented by the “Storage at 4° C. for 16 hours” treatment and “Heat at 55° C. for 30 minutes” treatment, respectively. Incubation at “pH 4.7 for 16 hours” is relevant because mildly acidic conditions are necessary to inhibit bacterial growth during wound treatment.
Furthermore, the stability of the bFGF-heparin mimicking conjugate was challenged against proteolytic degradation and extreme acidic conditions by incubating with 0.1% w/v trypsin for 16 hours and 1% trifluoroacetic acid (TFA) for 2 hours, respectively. The starting concentrations of bFGF and bFGF in the conjugates were equivalent and the concentrations of the unconjugated polymers and heparin were the same at approximately stoichiometric ratios to bFGF. The positive control group contained a large excess (700 molar) of heparin to bFGF. The negative control was native bFGF alone.

Series [2] shares this test system. The series can be described thus: Bioactivity study: HDF proliferation, CellTiter-Blue assay, untreated samples. Format: cell-based. The conditions noted are these: no stress, samples stored at −80° C. before use; 1 ng/ml bFGF or bFGF in conjugate; 72 hours; normalized to blank. As for the experimental part:
as §1
HDF cells were trypsinized and resuspended in UltraCULTURE™ serum-free medium supplemented with 2 mM L-Glutamine and 100 u/ml penicillin and 100 μg/ml streptomycin. The cells were plated at a concentration of 2000 cells/well in a 96-well plate and allowed to adhere over 16 hours at 37° C., 5% CO2. […] Then, the medium in the wells was replaced with 100 μl of each sample. After an incubation for 72 hours at 37° C., 5% CO2, CellTiter-Blue® assay was carried out to evaluate cell proliferation. […] Each group was done with six replicates, and the whole experiment was repeated four times, one of which was a blinded study.
HDFs were used as the in vitro model to evaluate the bioactivity of the bFGF-heparin mimicking polymer conjugate before and after exposure to various stresses.
On the technique in general: The colour change of resazurin is a common sign of viable cells or microbes.

Series [3] relates to BaF3 cells (FR1C-11). The series can be described thus: Proliferation study of BaF3 cells expressing FGFR1 and lacking heparan sulfate proteoglycans. Format: cell-based. The conditions noted are these: 42 hours, medium lacking IL-3, normalized to blank; for percent cell growth, bFGF or conjugate alone: 1 ng/ml, without heparin. The method, then:
BaF3 cells (FR1C-11), which express FGFR1 but lack heparin sulfate proteoglycans, were seeded at a density of 20,000 cells/well in cultured medium lacking IL-3 in a 96-well-plate. […] The cells were incubated for 42 hours. CellTiter® blue assay was performed to quantify percent cell growth. Data was normalized to blank sample group. Each group was done with six replicates. Error bars are standard deviations.
Heparin (as cell surface receptors called heparan sulfate proteoglycans) is also known to increase the mitogenic activity of bFGF by increasing binding to the bFGF receptors (FGFRs). In addition, heparin promotes bFGFR dimerization by providing the “glue” between two bFGFs and two FGFRs (see crystal structure, FIGS. 12B and 12C). In fact, this heparin assisted, ligand-induced dimerization of bFGFRs is required for activity. […] In some embodiments, the new heparin mimicking polymer can induce the dimerization and uptake the FGFRs.
While bFGF interacts directly with cells by binding to FGFRs, signal transduction cannot occur without the simultaneous interaction with heparan sulfate proteoglycan (HS) cell surface receptors. […] BaF3 cells are engineered to express FGFR1 and lack cell-surface HS; addition of soluble heparin is required to activate the cells with bFGF.

The test system of series [4] is Human Dermal Fibroblast (HDF) cells. The conditions noted are these: 1 ng/ml to 1 mg/ml for 24 hours in the absence of bFGF.
Series [5] has the same test system. Format: cell-based. The settings on record: 1 ng/ml bFGF or conjugate, 72 hours, with 125 nM PD173074. As for the experimental part: FIG. 6 depicts the exemplary results of an inhibition assay. The medium samples were prepared with and without 125 nM of PD173074. 2,000HDF cells/well was incubated with each of the sample for 72 hours at 37° C., 5% CO2. Each sample group was done with six replicates, and the whole experiment was repeated three times.
To confirm that the bFGF-heparin mimicking conjugate promoted cell growth by the same transduction pathway as by native bFGF, a potent inhibitor for FGF receptor 1 (FGFR1) was included in the media. PD173074 (N-[2-[[4-(diethylamino)butyl]amino]-6-(3, 5-dimethoxyphenyl)pyrido[2, 3-d]pyrimidin-7-yl]-N′-(1, 1-dimethylethyl)-urea) competes with adenosine-5′-triphosphate (ATP) for binding to the receptors, a key step for FGFR phosphorylation, and shuts down the signal transduction pathways associated with cell proliferation.
HDF cells were trypsinized and resuspended in UltraCULTURE™ serum-free medium supplemented with 2 mM L-Glutamine and 100 u/ml penicillin and 100 μg/ml streptomycin. […] On the next day, the experimental groups were prepared to contain 1 ng/ml of bFGF, or 1 ng/ml of bFGF with 1 μg/ml of heparin, or 1 ng/ml of bFGF-pSS-co-PEGMA; all with an addition of 125 nM of the inhibitor PD173074. The control groups were the replicates but without the addition of the inhibitor. Then, the medium in the wells was replaced with 100 μl of each sample. […]

Series [6] has the same test system. The series can be described thus: Bioactivity after 4-week storage at 4° C., HDF proliferation. The settings on record: 4 weeks of storage at 4° C., then 1 ng/ml on HDF for 72 hours. Format: cell-based. The method, then:
FIG. 4B depicts exemplary bioactivity study of bFGF-heparin mimicking (bFGF-pSS-co-PEGMA) conjugate in promoting HDF proliferation compared to other control groups before and after the treatments. Preparation of untreated and treated samples is detailed in the Methods section. The concentrations of bFGF and bFGF in the conjugates under treatment were 0.05 ng/μL. The concentration of heparin under treatment was 0.075 ng/μl or 0.05 μg/μl, while the concentrations of the unconjugated polymers were 0.075 ng/μl. The final concentrations of bFGF and bFGF conjugates in the medium were 1 ng/ml. Bioactivity study of bFGF-heparin mimicking polymer, bFGF-pSS-co-PEGMA conjugate, after 4-week storage at 4° C. Data was normalized to the blank sample (contained medium only). Each group was done with six replicates.
Bioactivity study of bFGF-pSS-co-PEGMA conjugate after long-time storage was also tested. After 4 weeks of storage 4° C.
In these experiments, an amount of 30 μl of each experimental group in D-PBS was made up to contain 0.05 ng/μ1 of bFGF or bFGF-pSS-co-PEGMA conjugate. The positive control group was prepared to contain 0.05 ng/μl of bFGF and 0.05 μg/μl of heparin. The samples were then stored at 4° C. for 4 weeks. […]

The mark [7] stands for this setting: then 1 ng/ml on HDF for 72 hours.

With “bFGF-poly(ethylene glycol) methyl ether methacrylate) [bFGF-pPEGMA, reference compound]”, in series [1] (setting [7]), the “percent cell growth after trypsin treatment” value is recorded as “some stability”, the “bioactivity after mildly acidic conditions” value is “some stability” and the “percent cell growth after storage” value is “some stability”. The substance also came in with a percent cell growth in series [2] of 190±6%.

Take heparin [reference compound]: in series [3] (1 μg/ml of additive with 1 ng/ml of bFGF), the “percent cell growth, additive given with bFGF” value worked out at 384±35%. Moreover, the percent cell viability result in series [4] was “the same as no polymer added”.

“bFGF-pSS-co-PEGMA: bFGF covalently conjugated via a reversible disulfide bond to one heparin mimicking polymer pSS-co-PEGMA (mono-conjugate)”: in series [1] (setting [7]), the “percent cell growth after trypsin treatment” value was determined as 176±11%, the “bioactivity after mildly acidic conditions” value is “statistically the same as before treatment” and the “percent cell growth after storage” value was 210±10%. In addition, in series [1] (1% trifluoroacetic acid (TFA) for 2 hours, then 1 ng/ml on HDF for 72 hours), the “percent cell growth after TFA treatment” value is on record as 162±17%. Also, the “percent cell growth after heat treatment” value in series [1] (heat at 55° C. for 30 minutes, then 1 ng/ml on HDF for 72 hours) is given as 167±12%. Moreover, the “stability to the treatments (overall)” value in series [1] (storage, pH 4.7, trypsin, 1% TFA, heat, read out as HDF proliferation) is “stable”. The “percent cell growth in the presence of PD173074” value in series [5] turned out to be 85±11%. The “activity after long-time storage” value in series [6] is listed as “completely retained”. Moreover, the “percent cell growth, bFGF or conjugate alone” value in series [3] was “did not induce cell growth”. In series [3] (listed as bFGF-pSS-co-pPEGMA), the “percent cell growth, bFGF or conjugate alone” value amounted to 147±14%. Besides, in series [2], the percent cell growth came out at 213±13%.

As for “bFGF: Basic fibroblast growth factor, a 16-kDa polypeptide, also called fibroblast growth factor 2”, in series [5], the “percent cell growth in the presence of PD173074” value came out at 88±5%. In addition, in series [3], the “percent cell growth, bFGF or conjugate alone” value is 127±12%. This substance displayed a percent cell growth in series [2] of 192±9%.
